Measured values from patent US4454122A, “Adenosine derivatives of anti-inflammatory and analgesic activity, and therapeutic compositions which contain them as their active principle” (Bioresearch S.r.l., priority 1982, dated 1984).

Columns and labels:
[1] = tested on: experimental edema in the rat by carragen; test: experimental edema in the rat by carragen (Winter method), percentage protection; assay type: in vivo; conditions: for inhibition in vivo at 85 mg/kg: 85 mg/kg orally; for inhibition in vivo at 80 mg/kg: 80 mg/kg orally
gastro-intestinal system = test: secondary effects on the gastro-intestinal system at ED50 doses (gastric lesions); assay type: in vivo, rat; conditions: at ED50 doses
Protocol: In the same test, the ED50 of indomethacine is 9 mg/kg.

[2] = lethal dose in the rat and therapeutical index; conditions: in vivo; edema test in the rat; read-out: therapeutical index (TI)
[3] = tested on: experimental edema in the rat by carragen; test: experimental edema in the rat by carragen (Winter method), percentage protection; assay type: in vivo
Protocol: ^ (a) signifies that the product was administered intramuscularly.

rat = conditions: Martelli A., 1973; cited from earlier work
[4] = tested on: pleuritis induced in the rat by carragen; test: pleuritis induced in the rat by carragen (Velo method); assay type: in vivo
[5] = tested on: stretching by phenylquinone; test: stretching test by phenylquinone (analgesic activity); assay type: in vivo; conditions: im; intramuscularly
mouse = test: hot plate test on the mouse according to Roberts (analgesic activity); assay type: in vivo
Protocol: C--The analgesic activity of the products was tested by two tests considered very significant.
In the hot plate test on the mouse according to Roberts (Roberts E. Simonsen D.G. (1966) Biochem. Pharmac. 15, 1875-) the MTA gives a protection of 50% with an oral dose of 37 mg/kg. An approximately equivalent protection of 58% is obtained with 100 mg/kg of amidopyrine administered orally.

[6] = acute toxicity, DL50 in the mouse; conditions: in vivo
Description: The compounds of the present invention are practically free from acute toxicity when administered orally. They are practically free from toxicity at therapeutic doses for any method of administration. The following values are obtained for MTA and MTA sulphoxide: […]

[7] = tested on: platelet aggregation induced by arachidonic acid; test: in vitro platelet aggregation induced by arachidonic acid (AA); assay type: cell-based; conditions: MTA 5×10^-4 M or PGI2 5×10^-9 M, each alone; FIG. 3
Protocol: (2) "in vitro" tests on platelet aggregation induced by arachidonic acid (AA);
Blood was withdrawn without stasis, and an anticoagulant (3.8% sodium citrate) was added to give a blood:citrate ratio of 9:1. Plasma rich in platelets and plasma poor in platelets were obtained by centrifuging at ambient temperature.
The platelet aggregation was estimated using the Born & Cross method (G. V. R. Born and M. J. Cross, J. Physiol., Lond. 168, 178, 1963) on the plasma fraction rich in platelets.
The aggregating agents were used in the following concentrations:
ADP (Sigma) 1 μM; collagen (Horn) 5 μml; arachidonic acid 4×10^-4 M.
The capacity of MTA to increase the inhibiting effect of prostacyclin (PGI2) in aggregation induced by AA was also investigated. In FIG. 3, curve 1 relates to the controls, curve 2 to MTA at a concentration of 5×10^-4 M, curve 3 to PGI2 at a concentration of 5×10^-9 M, and curve 4 to a mixture consisting of 5×10^-4 M MTA and 5×10^-9 M PGI2.

[8] = tested on: fever induced in the rat by beer yeast; test: fever induced in the rat by beer yeast (antipyretic activity); assay type: in vivo; conditions: 200 mg/kg, orally
Protocol: This was measured for the new products by means of fever induced in the rat by beer yeast (Winder C. V. et al (1961) J. Pharmacol. Exp. Ther. 133, 117).

[9] = po, rat, read-out: Percent protection calculated on edema development
[10] = intramuscular, table 1 and all the tests carried out

CC(C)CSC[C@H]1O[C@@H](n2cnc3c(N)ncnc32)[C@H](O)[C@@H]1O
inhibition in vivo at 85 mg/kg [1, 9]: 62%

CC(C)SC[C@H]1O[C@@H](n2cnc3c(N)ncnc32)[C@H](O)[C@@H]1O
inhibition in vivo at 80 mg/kg [1, 9]: 45%

CCC(C)SC[C@H]1O[C@@H](n2cnc3c(N)ncnc32)[C@H](O)[C@@H]1O (stereo partly drawn)
inhibition in vivo at 85 mg/kg [1, 9]: 35%

COc1ccc2c(c1)c(CC(=O)O)c(C)n2C(=O)c1ccc(Cl)cc1 [Indomethacine, reference compound]
secondary effect on the gastro-intestinal system / gastric lesions (gastro-intestinal system): serious gastric lesions | selectivity ratio [2]: 1.3 | inhibition in vivo at 9 mg/kg ([3]; Rattus norvegicus, po, read-out: Percent protection calculated on edema development): 50% | LD in the rat (rat): 12 mg/kg | protection, compared with that of MTA (in words) ([4]; 10 mg/kg, compared with MTA 75 mg/kg oral): comparable protection | ED50 ([1]; Rattus norvegicus, po, read-out: ED50 (edema test)): 9 mg/kg

C[S+]([O-])C[C@H]1O[C@@H](n2cnc3c(N)ncnc32)[C@H](O)[C@@H]1O (stereo partly drawn) [MTA sulphoxide, methylthioadenosine sulphoxide]
inhibition in vivo at 8.6 mg/kg ([3]; im, 8.6 mg/kg intramuscularly, rat, read-out: Percent protection calculated on edema development): 50% | activity by intramuscular administration (in words) [3, 10]: greater activity | ED50 [5]: 10 mg/kg | protection in the hot plate test (mouse; 20 mg/kg, intramuscularly): 50% | protection in the hot plate test (mouse; 100 mg/kg, oral): 50% | LD50 ([6]; iv, intravenously): 400 mg/kg | LD50 ([6]; po, orally): > 2000 mg/kg | protection calculated on the total number of cells present in the exudate ([4]; 80 mg/kg, intramuscularly, rat): 76.4% | protection calculated on the volume of the exudate ([4]; 80 mg/kg, intramuscularly, rat): 75.8% | activity by intramuscular administration (in words) [1, 10]: particularly active | inhibition in vivo at 156 mg/kg ([1]; po, 156 mg/kg orally, rat, read-out: Percent protection calculated on edema development): 50%

CCCCC[C@H](O)/C=C/[C@@H]1[C@H]2C/C(=C/CCCC(=O)O)O[C@H]2C[C@H]1O [PGI2, reference compound]
antiaggregation action alone, AA induced (in words) [7]: ineffective

Cc1c(N(C)C)c(=O)n(-c2ccccc2)n1C [amidopyrine, reference compound]
protection in the hot plate test (mouse; 100 mg/kg, oral): 58% | temperature reduction [8]: 4.69%

CCCSC[C@H]1O[C@@H](n2cnc3c(N)ncnc32)[C@H](O)[C@@H]1O [n = 0 R = (CH2)2CH3, R1 = R2 = H]
inhibition in vivo at 80 mg/kg [1, 9]: 53%

CCCCSC[C@H]1O[C@@H](n2cnc3c(N)ncnc32)[C@H](O)[C@@H]1O [n = 0 R = (CH2)3CH3, R1 = R2 = H]
inhibition in vivo at 85 mg/kg [1, 9]: 39%

CCCCCSC[C@H]1O[C@@H](n2cnc3c(N)ncnc32)[C@H](O)[C@@H]1O [n = 0 R = (CH2)4CH3, R1 = R2 = H]
inhibition in vivo at 90 mg/kg ([1]; po, 90 mg/kg orally, rat, read-out: Percent protection calculated on edema development): 25%

CCCCCCCSC[C@H]1O[C@@H](n2cnc3c(N)ncnc32)[C@H](O)[C@@H]1O [n = 0 R = (CH2)6CH3, R1 = R2 = H]
inhibition in vivo at 95 mg/kg ([1]; po, 95 mg/kg orally, rat, read-out: Percent protection calculated on edema development): 20%

CCCCCCCCSC[C@H]1O[C@@H](n2cnc3c(N)ncnc32)[C@H](O)[C@@H]1O [n = 0 R = (CH2)7CH3, R1 = R2 = H]
inhibition in vivo at 100 mg/kg ([1]; po, 100 mg/kg orally, rat, read-out: Percent protection calculated on edema development): 47%

CCCCCCCCCCSC[C@H]1O[C@@H](n2cnc3c(N)ncnc32)[C@H](O)[C@@H]1O [n = 0 R = (CH2)9CH3, R1 = R2 = H]
inhibition in vivo at 106 mg/kg ([1]; po, 106 mg/kg orally, rat, read-out: Percent protection calculated on edema development): 33%

CCCCCCCCCCCCSC[C@H]1O[C@@H](n2cnc3c(N)ncnc32)[C@H](O)[C@@H]1O [n = 0 R = (CH2)11CH3, R1 = R2 =]
inhibition in vivo at 112 mg/kg ([1]; po, 112 mg/kg orally, rat, read-out: Percent protection calculated on edema development): 10%

Nc1ncnc2c1ncn2[C@@H]1O[C@H](CSCc2ccccc2)[C@@H](O)[C@H]1O [n = 0 R = CH2C6 H5, R1 = R2 = H]
inhibition in vivo at 47 mg/kg ([1]; po, 47 mg/kg orally, rat, read-out: Percent protection calculated on edema development): 10%

CCSC[C@H]1O[C@@H](n2cnc3c(N)ncnc32)[C@H](O)[C@@H]1O [n = 0 R = CH2CH3, R1 = R2 = H, 5'-deoxy-5'-ethylthioadenosine]
inhibition in vivo at 80 mg/kg [1, 9]: 44%

CSC[C@H]1O[C@@H](n2cnc3c(N)ncnc32)[C@@H]2OC(C)(C)O[C@@H]21 [n = 0 R = CH3, R1 = H, R2R1 = isopropyl, 5'-deoxy-2',3'-isopropylidene-5'-methylthioadenosine]
inhibition in vivo at 91 mg/kg ([1]; po, 91 mg/kg orally, rat, read-out: Percent protection calculated on edema development): 20%

CSC[C@H]1O[C@@H](n2cnc3c(NC(=O)c4ccccc4)ncnc32)[C@H](OC(=O)c2ccccc2)[C@@H]1OC(=O)c1ccccc1 [n = 0 R = CH3, R1 = R2 = COC6 H5]
inhibition in vivo at 164 mg/kg ([1]; po, 164 mg/kg orally, rat, read-out: Percent protection calculated on edema development): 10%

CSC[C@H]1O[C@@H](n2cnc3c(NC(C)=O)ncnc32)[C@H](OC(C)=O)[C@@H]1OC(C)=O [n = 0 R = CH3, R1 = R2 = COCH3, N^6,2',3'-triacetyl-5'-deoxy-5'-thioadenosine]
inhibition in vivo at 114 mg/kg ([1]; po, 114 mg/kg orally, rat, read-out: Percent protection calculated on edema development): 47%

CSC[C@H]1O[C@@H](n2cnc3c(NS(=O)(=O)c4ccc(C)cc4)ncnc32)[C@H](OS(=O)(=O)c2ccc(C)cc2)[C@@H]1OS(=O)(=O)c1ccc(C)cc1 [n = 0 R = CH3, R1 = R2 = tosyl]
inhibition in vivo at 204 mg/kg ([1]; po, 204 mg/kg orally, rat, read-out: Percent protection calculated on edema development): 15%
